In patent US8546147B2, “Imidazo[1,2-α]pyrazin-3(7H)-one derivatives bearing a new electron-rich structure” (Universita degli Studi di Siena, priority 2009, dated 2013):
Where two headings read alike, the source gives them in different places.

What was measured:
[1] = cited from earlier work
[2] = cited from earlier work; remark: listed apart in the source
[3] = Chemiluminescence spectrum in DMSO (Shimadzu RF5001PC); format: physicochemical; settings: for max. emission peak of chemiluminescent spectrum: 1-3 μg/mL in DMSO
Method: Chemiluminescence Spectrums.
Consequently, 10 μL of the stock solution were directly diluted in the quartz cuvette reader of the Fluorescence Spectrophotometer Shimadzu RF5001PC, containing 3 mL of DMSO, to obtain a final sample concentration of 1-3 μg/mL.

[4] = target: T1, Renilla Luciferase (RLuC) (Renilla reniformis, UniProt P27652)
T1 sequence (P27652 1-311): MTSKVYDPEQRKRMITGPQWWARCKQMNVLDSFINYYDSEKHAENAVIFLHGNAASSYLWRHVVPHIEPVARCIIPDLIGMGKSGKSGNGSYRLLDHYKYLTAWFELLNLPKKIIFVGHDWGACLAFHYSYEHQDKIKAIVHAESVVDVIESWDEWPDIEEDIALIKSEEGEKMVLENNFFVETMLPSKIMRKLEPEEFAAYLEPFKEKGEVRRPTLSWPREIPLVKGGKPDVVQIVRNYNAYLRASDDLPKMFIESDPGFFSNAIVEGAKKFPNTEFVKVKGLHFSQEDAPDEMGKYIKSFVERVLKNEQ
Method: Bioluminescence Spectrum.
Bioluminescence was measured according to standard procedures.^40

[5] = target: T2, RLuC (donor) and Green Fluorescent Protein GFP (acceptor) (Renilla reniformis, UniProt P27652); settings: three different times, FIG. 8-10
T2 sequence (P27652 1-311): T1 sequence (P27652 1-311)

RLuc = target: T3, RLuc (Renilla reniformis, UniProt P27652); settings: cited from earlier work
T3 sequence (P27652 1-311): T1 sequence (P27652 1-311)

[6] = first line of values, native = 1.00
[7] = second line of values (line with half-rise time in ms)

| Molecule | Half-rise Time ([1]; first line of values) | Relative Intensity [1, 6] | Relative Luminescence capacity [1, 6] | Relative Intensity [1, 7] | Relative Luminescence capacity [1, 7] | Half-rise Time ([1]; second line of values) | other results |
| --- | --- | --- | --- | --- | --- | --- | --- |
| Oc1ccc(-c2cn3c(O)c(Cc4ccccc4)nc3c(Cc3ccccc3)n2)cc1 [Coelenterazine h] | 0.4 to 0.80 s | 10 | 0.82 | 16 | 0.75 | 0.006 to 0.03 s | – |
| O=c1c(Cc2ccc(I)cc2)nc2c(Cc3ccccc3)[nH]c(-c3ccc(O)cc3)cn1-2 [Coelenterazine i] | 8 s | 0.03 | 0.70 | – | – | – | – |
| O=c1c(Cc2ccc(O)cc2)nc2c(Cc3ccccc3)[nH]c(-c3ccc(O)cc3)cn1-2 [Compound 1, coelenterazine] | 0.4 to 0.8 s | 1.00 | 1.00 | – | – | 0.006 to 0.03 s | ΦCl ([2]; chemiluminescence quantum yield): 0.21%; Relative Light Yield ([2]; in brackets, relative to compound 1 (1.0)): 1.0 |
| O=c1c(Cc2ccccc2)nc2c(Sc3ccccc3)[nH]c(-c3ccccc3)cn1-2 [Compound 23f, 2-Benzyl-6-phenyl-8-(phenylthio)imidazo-[1,2-a]pirazin-3(7H)-one] | – | – | – | – | – | – | kinetic of chemiluminescence (in words) [3]: slower than 23b; max. emission peak of chemiluminescent spectrum [3]: 510 nm; emission shift between chemiluminescent spectrums ([3]; 23f versus 23b): about 45 nm; chemiluminescence intensity (in words) ([3]; compared with 23b): relative lowest intensity; bioluminescent emission [4]: about 415 nm; shift in respect of compound 23b [4]: about 30 nm; Shifts vs.23b ([4]; 1st measurement): 27.7 nm; Bioluminescent emission max ([4]; 1st measurement of triplicate): 415.1 nm; Shifts vs.23b ([4]; 2nd measurement): 27.4 nm; Bioluminescent emission max ([4]; 2nd measurement of triplicate): 419.4 nm; Shifts vs.23b ([4]; 3d measurement): 31.4 nm; Bioluminescent emission max ([4]; 3d measurement of triplicate): 424.3 nm; emission over time in BRET experiment (in words) [5]: long lasting |
| O=c1c(Cc2ccccc2)nc2c(Sc3ccc(Cl)cc3)[nH]c(-c3ccccc3)cn1-2 [Compound 23n, 2-Benzyl-8-(4-chlorophenylthio)-6-phenylimidazo[1,2-a]pyrazin-3(7H)-one] | – | – | – | – | – | – | Chemil. Imax [3]: 505 nm |
| Coelenterazine ip | 1 s | 47 | 0.54 | – | – | – | – |
| O=c1c(Cc2ccccc2)nc2c(Cc3ccccc3)[nH]c(-c3ccc4c(c3)OCO4)cn1-2 [Compound 23e, 2,8-Dibenzyl-6-[3,4-(methylendioxy)-phenyl]imidazo-[1,2-a]pirazin-3(7H)-one] | – | – | – | – | – | – | Shifts vs.23b ([4]; 1st measurement): 10.2 nm; Bioluminescent emission max ([4]; 1st measurement of triplicate): 397.6 nm; Shifts vs.23b ([4]; 2nd measurement): 5.5 nm; Bioluminescent emission max ([4]; 2nd measurement of triplicate): 397.5 nm; Shifts vs.23b ([4]; 3d measurement): 5.2 nm; Bioluminescent emission max ([4]; 3d measurement of triplicate): 398.2 nm; emission over time in BRET experiment (in words) [5]: decrease over time |
| O=c1c(Cc2ccccc2)nc2c(Sc3ccc(Cl)cc3)[nH]c(-c3ccc(O)cc3)cn1-2 [Compound 23i, 2-Benzyl-8-(4-chlorophenylthio)-6-(4-hydroxyphenyl)imidazo[1,2-a]pyrazin-3(7H)-one] | – | – | – | – | – | – | Chemil. Imax [3]: 505 nm; Biolum. Imax [4]: 510 nm |
| Coelenterazine hcp | 0.15 to 0.3 s | 190 | 0.67 | 500 | 0.65 | 0.002 to 0.005 s | – |
| O=c1c(Cc2ccc(O)cc2)nc2c(CC3CCCC3)[nH]c(-c3ccc(O)cc3)cn1-2 [Coelenterazine cp] | 0.15 to 0.3 s | 20 | 0.95 | 28 | 0.63 | 0.005 s | – |
| O=c1c(Cc2ccc(F)cc2)nc2c(CC3CCCC3)[nH]c(-c3ccc(O)cc3)cn1-2 [Coelenterazine fcp] | 0.4 to 0.8 s | 135 | 0.57 | – | – | – | – |
| O=c1c(Cc2ccccc2)nc2c(Cc3ccccc3)[nH]c(-c3ccccc3)cn1-2 [Compound 23b, 2,8-Dibenzyl-6-phenylimidazo-[1,2-a]pyrazin-3(7H)-one] | – | – | – | – | – | – | max. emission peak of chemiluminescent spectrum [3]: 465 nm |
| Oc1ccc(Cc2nc3c(Cc4ccccc4)nc4c(n3c2O)CCc2cc(O)ccc2-4)cc1 [Coelenterazine e] | 0.15 to 0.3 s | 4 | 0.5 | – | – | – | – |
| O=c1c(Cc2ccccc2)nc2c(Cc3ccccc3)[nH]c(-c3ccccc3)cn1-2 [Coelenterazine 400a] | – | – | – | – | – | – | Rluc emission peak (RLuc): 395 nm |
| Coelenterazine n | 5 s | 0.01 | 0.26 | 0.15 | 0.25 | 0.006 to 0.03 s | – |
| O=c1c(Cc2ccc(F)cc2)nc2c(Cc3ccccc3)[nH]c(-c3ccc(O)cc3)cn1-2 [Coelenterazine f] | 0.4 to 0.8 s | 18 | 0.80 | 20 | 0.80 | 0.006 to 0.03 s | – |
